Source: PMC7413254 (Nature Communications, 2020)
Read-outs that look alike come from different tables or passages of the source.

Legend:
Format in all cases: cell-based
PfCRT^Dd2 [1] = target: T1, PfCRT^Dd2 (Plasmodium falciparum, UniProt Q9N623, A220S/I356T/K76T/M74I/N326S/N75E/Q271E/R371I); experiment: [3H]CQ uptake into Xenopus oocytes, cis-inhibition by unlabelled solute; conditions: SEM
Method in brief: (§1)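 Assay buffer ND96 (10 mM MES, 10 mM Tris-base) held at pH 5.5 to mimic vacuole lumen; uptake measured inward from this acidic medium over 1.5 h at 27.5 °C.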

PfCRT^Ecu1110 = PfCRT^Ecu1110 (Plasmodium falciparum, UniProt Q9N623, A220S/I356L/K76T/N326D); experiment: cell-based; conditions: […]
Sequence of PfCRT^Ecu1110 (Q9N623 whole entry A220S/I356L/K76T/N326D): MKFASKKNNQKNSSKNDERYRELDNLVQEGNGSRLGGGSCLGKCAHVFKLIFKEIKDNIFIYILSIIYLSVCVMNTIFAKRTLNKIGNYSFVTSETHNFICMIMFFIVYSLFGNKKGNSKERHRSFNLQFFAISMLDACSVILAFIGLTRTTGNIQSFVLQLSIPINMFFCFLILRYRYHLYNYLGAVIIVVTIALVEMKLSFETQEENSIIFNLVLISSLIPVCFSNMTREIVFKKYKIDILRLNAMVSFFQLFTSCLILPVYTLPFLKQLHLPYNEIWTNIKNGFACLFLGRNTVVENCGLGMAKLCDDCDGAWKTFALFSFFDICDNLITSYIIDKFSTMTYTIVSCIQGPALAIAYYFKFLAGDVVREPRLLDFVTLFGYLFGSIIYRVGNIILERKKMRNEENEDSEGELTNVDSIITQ
Method in brief: (§2)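 Transport measured in Xenopus oocytes expressing the transporters, 1.5 h at 27.5 °C in ND96 pH 5.5 unless noted. For trans-stimulation, VF-6 injected in 25 nL ND96 at pH 5.0–7.0 or Na^+-free (choline) buffer; intracellular levels based on ~400 nL oocyte volume. Ten oocytes per treatment, ≥4 experiments.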

PfNT1 = target: T2, PfNT1 (Plasmodium falciparum, UniProt Q8IDM6); experiment: cell-based; conditions: for activity at 5000 µM: total [3H]CQ transport
T2 construct: expressed in transfected cells; host or cells: Xenopus laevis oocytes (stage V-VI), cRNA-injected
T2 sequence (Q8IDM6 whole entry): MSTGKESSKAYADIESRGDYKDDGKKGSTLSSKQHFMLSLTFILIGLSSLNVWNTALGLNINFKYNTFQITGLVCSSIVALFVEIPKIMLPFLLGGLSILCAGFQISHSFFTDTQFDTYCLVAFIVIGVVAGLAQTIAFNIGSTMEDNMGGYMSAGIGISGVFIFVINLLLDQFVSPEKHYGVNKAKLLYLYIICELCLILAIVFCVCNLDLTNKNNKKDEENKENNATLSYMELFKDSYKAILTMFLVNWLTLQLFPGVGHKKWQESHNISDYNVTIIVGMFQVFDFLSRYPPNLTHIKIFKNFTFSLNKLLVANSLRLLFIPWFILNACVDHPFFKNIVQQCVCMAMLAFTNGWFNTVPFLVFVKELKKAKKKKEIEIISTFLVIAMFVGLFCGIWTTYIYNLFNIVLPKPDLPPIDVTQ
Method in brief: as §2

PfCRT^Dd2 [2] = target: T1, PfCRT^Dd2; experiment: cell-based; conditions: […]; for activity at 45000 µM: [test solute]i = 45 mM (30 mM for some solutes due to solubility)
Method in brief: as §2

PfCRT^3D7 [3] = target: T3, PfCRT^3D7 (Plasmodium falciparum, UniProt Q8IBZ9); experiment: cell-based
T3 sequence (Q8IBZ9 59-398): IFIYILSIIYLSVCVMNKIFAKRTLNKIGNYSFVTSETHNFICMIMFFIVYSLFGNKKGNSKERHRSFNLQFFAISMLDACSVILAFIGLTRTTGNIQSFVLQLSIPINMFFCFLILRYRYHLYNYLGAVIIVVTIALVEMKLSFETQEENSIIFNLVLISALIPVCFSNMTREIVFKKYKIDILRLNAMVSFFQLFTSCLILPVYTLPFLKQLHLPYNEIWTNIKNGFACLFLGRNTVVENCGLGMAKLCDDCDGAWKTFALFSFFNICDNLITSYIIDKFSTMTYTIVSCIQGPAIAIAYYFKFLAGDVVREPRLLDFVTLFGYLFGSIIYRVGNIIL
Method in brief: as §2

PfCRT^3D7 [4] = target: T3, PfCRT^3D7; experiment: cell-based; conditions: total [3H]CQ transport; for inhibition at 500 µM: [test solute] = 0.5 mM; for inhibition at 1000 µM: [test solute] = 1 mM; for inhibition at 2000 µM: [test solute] = 2 mM
Method in brief: as §1

[5] = read-out: [3H]CQ transport (% PfCRTDd2 control), cis-inhibition, PfCRTDd2
[6] = PfCRT3D7 oocytes, normalised to the oocyte type control, read-out: Uptake of [3H]CQ (% PfCRT3D7 control), cis-inhibition
[7] = mean ± SEM, SEM, read-out: Uptake of [3H]CQ (% PfCRTDd2 control), cis-inhibition, PfCRT3D7

T1 sequence (Q9N623 whole entry A220S/I356T/K76T/M74I/N326S/N75E/Q271E/R371I): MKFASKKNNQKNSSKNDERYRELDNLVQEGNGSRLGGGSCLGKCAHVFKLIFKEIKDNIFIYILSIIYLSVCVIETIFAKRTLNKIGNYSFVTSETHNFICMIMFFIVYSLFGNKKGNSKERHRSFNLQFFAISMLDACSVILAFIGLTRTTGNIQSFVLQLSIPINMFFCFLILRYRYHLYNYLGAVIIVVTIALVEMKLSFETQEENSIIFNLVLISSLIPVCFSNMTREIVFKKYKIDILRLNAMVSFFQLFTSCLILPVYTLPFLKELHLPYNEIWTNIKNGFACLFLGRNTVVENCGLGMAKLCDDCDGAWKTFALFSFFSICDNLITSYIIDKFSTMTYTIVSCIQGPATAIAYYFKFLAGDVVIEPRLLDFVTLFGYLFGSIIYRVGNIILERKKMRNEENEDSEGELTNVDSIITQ

Question: For `N[C@@H](CS)C(=O)O` [L-cysteine], which inhibition at 2000 µM (PfCRT^Dd2 [1]; read-out: Uptake of [3H]CQ (% PfCRTDd2 control), cis-inhibition, PfCRTDd2) is on record?
Answer: 97 ± 3.1%

Question: What about the inhibition at 1000 µM (PfCRT^Dd2 [1]; [5]) of the same compound?
Answer: 95 ± 3.6%

Question: And the inhibition at 2000 µM (PfCRT^Dd2 [1]; [5])?
Answer: 95 ± 2.8%

Question: What about the activity at 5000 µM (PfCRT^Ecu1110; pH 5.5, read-out: PfCRT-mediated [3H]CQ transport, trans-stimulation (% PfCRTEcu1110 control), [test solute]i = 5 mM (intracellular), PfCRTEcu1110 oocytes, normalised to oocyte type control) of the same compound?
Answer: 95 ± 3%

Question: And the activity at 5000 µM (PfCRT^Ecu1110; pH 5.5, read-out: Uptake of [3H]CQ (% PfCRTEcu1110 control), trans-stimulation, PfCRTEcu1110 oocytes, [test solute]i = 5 mM, total [3H]CQ transport, normalised to the oocyte type control)?
Answer: 97 ± 4.2%

Question: What about the activity at 45000 µM (PfCRT^Ecu1110; pH 5.5, read-out: Uptake of [3H]CQ (% PfCRTEcu1110 control), trans-stimulation, PfCRTEcu1110 oocytes, [test solute]i = 45 mM (30 mM for some solutes due to solubility), total [3H]CQ transport, normalised to the oocyte type control) of the same compound?
Answer: 100 ± 3.5%

Question: What about the activity at 5000 µM (PfCRT^Ecu1110; read-out: Uptake of [3H]CQ (% PfCRTDd2 control), trans-stimulation, PfCRTEcu1110, total [3H]CQ transport, [test solute]i = 5 mM (intracellular), mean ± SEM, SEM) of the same compound?
Answer: 35 ± 1.4%

Question: What about the activity at 45000 µM (PfCRT^Ecu1110; read-out: Uptake of [3H]CQ (% PfCRTDd2 control), trans-stimulation, PfCRTEcu1110, total [3H]CQ transport, [test solute]i = 45 mM (intracellular; 30 mM for some solutes due to solubility), mean ± SEM, SEM) of the same compound?
Answer: 36 ± 2.7%

Question: What about the activity at 5000 µM (PfNT1; PfNT1 oocytes, [test solute]i = 5 mM, normalised to the oocyte type control, read-out: Uptake of [3H]CQ (% PfNT1 control), trans-stimulation) of the same compound?
Answer: 98 ± 3.7%

Question: And the activity at 45000 µM (PfNT1; SEM, read-out: Uptake of [3H]CQ (% PfCRTDd2 control), trans-stimulation, PfNT1)?
Answer: 2.6 ± 0.05%

Question: What about the activity at 45000 µM (PfNT1; read-out: Uptake of [3H]CQ (% PfNT1 control), trans-stimulation) of the same compound?
Answer: 99 ± 3.2%

Question: And the activity at 5000 µM (PfNT1; [test solute]i = 5 mM (intracellular), mean ± SEM, SEM, read-out: Uptake of [3H]CQ (% PfCRTDd2 control), trans-stimulation, PfNT1)?
Answer: 2.6 ± 0.08%

Question: What about the activity at 5000 µM (PfCRT^Dd2 [2]; pH 5.5, read-out: PfCRT-mediated [3H]CQ transport, trans-stimulation (% PfCRTDd2 control), [test solute]i = 5 mM (intracellular), PfCRTDd2 oocytes, normalised to oocyte type control) of the same compound?
Answer: 97 ± 2.6%

Question: And the activity at 5000 µM (PfCRT^Dd2 [2]; pH 5.5, read-out: Uptake of [3H]CQ (% PfCRTDd2 control), trans-stimulation, PfCRTDd2, total [3H]CQ transport, [test solute]i = 5 mM (intracellular), mean ± SEM, SEM)?
Answer: 99 ± 3.2%

Question: And the activity at 5000 µM (PfCRT^Dd2 [2]; pH 5.5, read-out: Uptake of [3H]CQ (% PfCRTDd2 control), trans-stimulation, PfCRTDd2 oocytes, [test solute]i = 5 mM, total [3H]CQ transport, normalised to the oocyte type control)?
Answer: 99 ± 3.2%

Question: What about the activity at 45000 µM (PfCRT^Dd2 [2]; pH 5.5, read-out: Uptake of [3H]CQ (% PfCRTDd2 control), trans-stimulation, PfCRTDd2 oocytes, total [3H]CQ transport, normalised to the oocyte type control) of the same compound?
Answer: 101 ± 3.7%

Question: And the activity at 5000 µM (PfCRT^Dd2 [2]; pH 5.5, read-out: [3H]CQ transport (% PfCRTDd2 control), trans-stimulation, PfCRTDd2, trans-stimulation, [test solute]i = 5 mM (injected), PfCRT-mediated component (background subtracted), mean ± SEM, SEM)?
Answer: 97 ± 2.6%

Question: And the activity at 45000 µM (PfCRT^Dd2 [2]; pH 5.5, read-out: [3H]CQ transport (% PfCRTDd2 control), trans-stimulation, PfCRTDd2, trans-stimulation, PfCRT-mediated component (background subtracted), mean ± SEM, SEM)?
Answer: 99 ± 4.5%

Question: What about the activity at 5000 µM (PfCRT^3D7 [3]; PfCRT3D7 oocytes, [test solute]i = 5 mM, total [3H]CQ transport, normalised to the oocyte type control, read-out: Uptake of [3H]CQ (% PfCRT3D7 control), trans-stimulation) of the same compound?
Answer: 100 ± 2.4%

Question: What about the “[3H]CQ transport (% PfCRT3D7 control), trans-stimulation, PfCRT3D7” value (PfCRT^3D7 [3]; SEM) of the same compound?
Answer: 0.3 ± 0.02 % PfCRT3D7 control

Question: And the activity at 5000 µM (PfCRT^3D7 [3]; [test solute]i = 5 mM (intracellular), PfCRT3D7 oocytes, normalised to oocyte type control, read-out: PfCRT-mediated [3H]CQ transport, trans-stimulation (% PfCRT3D7 control))?
Answer: 98 ± 3.1%

Question: What about the activity at 45000 µM (PfCRT^3D7 [3]; SEM, read-out: Uptake of [3H]CQ (% PfCRTDd2 control), trans-stimulation, PfCRT3D7) of the same compound?
Answer: 3.2 ± 0.08%

Question: And the activity at 45000 µM (PfCRT^3D7 [3]; read-out: PfCRT-mediated [3H]CQ transport, trans-stimulation (% PfCRT3D7 control))?
Answer: 94 ± 4.4%

Question: What about the activity at 45000 µM (PfCRT^3D7 [3]; read-out: Uptake of [3H]CQ (% PfCRT3D7 control), trans-stimulation) of the same compound?
Answer: 96 ± 3.5%

Question: What about the activity at 5000 µM (PfCRT^3D7 [3]; total [3H]CQ transport, [test solute]i = 5 mM (intracellular), mean ± SEM, SEM, read-out: Uptake of [3H]CQ (% PfCRTDd2 control), trans-stimulation, PfCRT3D7) of the same compound?
Answer: 3.3 ± 0.05%

Question: What about the inhibition at 500 µM (PfCRT^3D7 [4]; [6]) of the same compound?
Answer: 99 ± 3.2%

Question: What about the inhibition at 1000 µM (PfCRT^3D7 [4]; [6]) of the same compound?
Answer: 100 ± 3.6%

Question: And the inhibition at 2000 µM (PfCRT^3D7 [4]; [6])?
Answer: 99 ± 4.2%

Question: And the inhibition at 500 µM (PfCRT^3D7 [4]; [7])?
Answer: 3.4 ± 0.05%

Question: And the inhibition at 1000 µM (PfCRT^3D7 [4]; [7])?
Answer: 2.5 ± 0.05%

Question: What about the inhibition at 2000 µM (PfCRT^3D7 [4]; [7]) of the same compound?
Answer: 3.1 ± 0.08%
